Reference: patent US20220289657A1, “COMPOSITION FOR PREVENTING OR TREATING BACTERIAL INFECTIOUS DISEASE COMPRISING 4-GINGEROL DERIVATIVE COMPOUND AS ACTIVE INGREDIENT” (KOREA UNIVERSITY RESEARCH AND BUSINESS FOUNDATION, SEJONG …, priority 2019, published 2022)
pIC50: −log10 of the molar value. Like-named read-outs stand apart in the source and are kept apart here. Marks after values point to notes of the source that are not given here.

Legend:
RhlR = molecular target: T1, RhlR (Pseudomonas aeruginosa, UniProt P54292); assay: cell-based; details: for Relative RhlR activity Antagonism / Relative RhlR activity Agonism: Table 2; for Relative RhlR activity Agonism / activity at 100 µM: matches the 100 column of Table 3; for activity at 100 µM: read-out: Relative RhlR activity Agonism, Table 2; for Relative RhIR Activity (%) Agonism 100 / Relative RhIR Activity (%) Agonism 1000: Table 3; for Relative RhIR Activity (%) Agonism 1000: 1000 (μM); for remaining activity at 10 µM: read-out: Relative RhIR Activity (%) Antagonism 10, Table 3
T1 construct: expressed in transfected cells; host or cells: E. coli sdiA variant co-transformed with pJN105R and pSC11 (RhlA::lacZ)
T1 sequence (P54292 whole entry): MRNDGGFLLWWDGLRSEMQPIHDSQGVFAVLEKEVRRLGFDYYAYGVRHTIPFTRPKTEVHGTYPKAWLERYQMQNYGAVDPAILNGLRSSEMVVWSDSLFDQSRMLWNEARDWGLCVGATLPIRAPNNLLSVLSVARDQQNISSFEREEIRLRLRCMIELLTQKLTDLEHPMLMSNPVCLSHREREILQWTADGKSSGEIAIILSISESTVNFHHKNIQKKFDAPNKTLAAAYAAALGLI
Procedure: Escherichia coli (E. coli) DH5a includes LuxR homolog SdiA detecting endogenous AHL synthesized by other microbial species, particularly, BHL.
(§1) For RhlR reporter strain analysis, the present invention used pJN105R (RhlR expression plasmid), anspSC11 (RhlA::lacZ fusion plasmid) and an sdiA variant co-transformed with the two plasmids. 1% of an overnight-cultured reporter strain (OD 595 nm=1.0) supplemented with 10 μg/mL gentamicin and 50 μg/mL ampicillin was cultured in a Luria-Bertani (LB) medium (Difco, Detroit, Mich., USA) with a positive control or a compound (0-1000 μM) and BHL (0-10 μM) (Sigma-Aldrich) at 37° C. for 2 hours. 0.4% arabinose (Sigma-Aldrich) was reacted with the resulting product at 37° C. for 1.5 hours. β-galactosidase activity was evaluated using a Tropix plus kit (Applied Biosystems, CA, USA), and OD 595 nm and luminescence were measured using a VICTOR x5 multimode plate reader (PerkinElmer, Waltham, Mass., USA). Relative RhlR activity was quantified by measuring luminescence at OD 595 nm. In addition, for LasR reporter strain analysis, the present invention used pJN105L (LasR expression plasmid) and pSC11 (lasI::lacZ fusion plasmid), E. coli DH5a co-transformed with the two plasmids, and OdDHL (Sigma-Aldrich).

LasR = molecular target: T2, LasR (Pseudomonas aeruginosa, UniProt P25084); assay: QS reporter strain assay, LasR (lasI::lacZ); assay type: cell-based; details: 0.1 and 10 μM; FIG. 6C
T2 construct: expressed in transfected cells; host or cells: E. coli DH5a co-transformed with pJN105L and pSC11 (lasI::lacZ)
T2 sequence (P25084 whole entry): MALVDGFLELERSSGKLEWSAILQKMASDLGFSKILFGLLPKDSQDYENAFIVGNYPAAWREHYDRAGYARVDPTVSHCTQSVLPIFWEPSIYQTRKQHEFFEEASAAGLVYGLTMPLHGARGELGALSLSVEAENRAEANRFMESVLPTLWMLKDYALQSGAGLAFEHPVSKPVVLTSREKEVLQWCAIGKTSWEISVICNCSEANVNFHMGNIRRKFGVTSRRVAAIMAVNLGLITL
Procedure: as §1

Pseudomonas aeruginosa [1] = assay: Static biofilm formation assay (crystal violet); assay type: cell-based; details: for activity at 10 µM / activity at 100 µM: Pseudomonas aeruginosa, 24 h, Table 3; for activity at 10 µM / activity at 100 µM / biofilm formation compared with a control (in words): static; for activity at 10 µM: read-out: Relative biological activity (%) Biofilm formation 10; for activity at 100 µM: read-out: Relative biological activity (%) Biofilm formation 100; for biofilm formation compared with a control (in words): 100 μM
Procedure: (§2) Pseudomonas aeruginosa (P. aeruginosa) (OD 595 nm=1.0) was cultured overnight, and diluted in an AB medium (1:20; 300 mM NaCl, 50 mM MgSO4, 0.2% vitamin-free casamino acids, 10 mM potassium phosphate, 1 mM L-arginine, and 1% glucose, pH 7.5) together with a positive control or compound (0100 μM) in a borosilicate bottle. The resulting mixture was incubated without shaking at 37° C. for 24 hours, and to measure growth inhibition activity. OD 595 nm of the suspended culture was measured using a multimode plate reader. Biofilm cells attached to the bottle were washed twice with phosphate-buffered saline (PBS; 137 mM NaCl, 2.7 mM KCl, 10 mM Na2HPO4, and 2 mM KH2PO4, pH 7.2). Afterward, the remaining biofilm cells were stained with 0.1% crystal violet for 10 minutes, and to remove the unbound crystal violet, washed with deionized water. The crystal violet […] to the biofilm cells was eluted with 100% ethanol, and the OD of the eluted ethanol sample was measured at 545 nm using a multimode plate reader.

Pseudomonas aeruginosa [2] = assay: Bacterial growth under static condition (OD 595 nm of suspended culture); assay type: cell-based; details: for activity at 10 µM / activity at 100 µM: Pseudomonas aeruginosa, 24 h, Table 3; for activity at 10 µM: read-out: Relative biological activity (%) Bacterial growth 10; for activity at 100 µM: read-out: Relative biological activity (%) Bacterial growth 100
Procedure: as §2

P. aeruginosa = assay: Rhamnolipid production assay; assay type: cell-based, Pseudomonas aeruginosa; details: for activity at 10 µM / activity at 100 µM: Pseudomonas aeruginosa, 24 h, Table 3; for activity at 10 µM: read-out: Relative biological activity (%) Rhamnolipid production 10; for activity at 100 µM: read-out: Relative biological activity (%) Rhamnolipid production 100
Procedure: P. aeruginosa (OD 595 nm=1.0) cultured overnight was inoculated in an AB medium (1:100) with a positive control or compound (0100 μM), and incubated using a shaking culture for 24 hours at 37° C. The cell culture was centrifuged for 5 minutes at 4° C. and 12,000 g. Rhamnolipids were extracted twice by mixing 200 μL of a supernatant and 400 μL of 100% diethyl ether (JUNSEI, Tokyo, Japan). The supernatant was transferred to a new tube and evaporated. A dried sample was eluted with 20 μL of deionized water, and reacted with 180 μL of an Orcinal solution (0.19% Orcinal (Sigma-Aldrich) in 53% H2SO4). The reaction mixture was heated for 30 minutes at 80° C., and cooled for 15 minutes at room temperature. The amount of rhamnolipids was measured at OD 421 nm, and normalized in the cell culture solution at OD 595 nm using a multimode plate reader.

[3] = footnotes not given, 100 μM per Table 3, lower = stronger antagonism
[4] = Table 4, concentration not given
[5] = read-out: Relative RhlR activity Antagonism, Table 2, footnotes not given, 100 μM per Table 3, lower = stronger antagonism
[6] = read-out: Relative RhIR Activity (%) Antagonism 100, Table 3, 100 (μM)

Row | SMILES | Relative RhlR activity Antagonism (RhlR; [3]) | Relative RhlR activity Agonism (RhlR; footnotes not given) | activity at 100 µM (RhlR; footnotes not given) [%] | remaining activity at 100 µM (RhlR; [5]) [%] | Relative RhIR Activity (%) Agonism 100 (RhlR; 100 (μM)) | Relative RhIR Activity (%) Agonism 1000 (RhlR) | remaining activity at 10 µM (RhlR) [%] | remaining activity at 100 µM (RhlR; [6]) [%] | activity at 10 µM (Pseudomonas aeruginosa [1]) [%] | activity at 100 µM (Pseudomonas aeruginosa [1]) [%] | biofilm formation compared with a control (in words) (Pseudomonas aeruginosa [1]) | activity at 10 µM (Pseudomonas aeruginosa [2]) [%] | activity at 100 µM (Pseudomonas aeruginosa [2]) [%] | activity at 10 µM (P. aeruginosa) [%] | activity at 100 µM (P. aeruginosa) [%] | further results
1 | CCCC(O)CC(=O)CCc1ccc(O)c(OC)c1 (stereo not drawn) [Compound 12a, 5-Hydroxy-1-(4-hydroxy-3-methoxyphenyl)octan-3-one] | 69** % | 4** % | – | – | – | – | – | – | – | – | – | – | – | – | – | pIC50 (RhlR; dose-response, FIG. 6A, different concentrations (0 to 100 μM)): 3.66; LasR antagonistic activity (LasR): no LasR antagonistic activity
2 | CCCCCC(=O)C#Cc1ccc(O)c(OC)c1 [Compound 21, 1-(4-Hydroxy-3-methoxyphenyl)oct-1-yn-3-one] | 29** % | – | 3 | 29 | – | – | – | – | – | – | – | – | – | – | – | Relative RhIR activity (%) Agonism (RhlR; [4]): 3** %; Relative RhIR activity (%) Antagonism (RhlR; [4]): 29** %; Relative biological activity (%) Biofilm formation (Pseudomonas aeruginosa [1]; [4]): 72* %; Relative biological activity (%) Bacterial growth (Pseudomonas aeruginosa [2]; [4]): 102%; Relative biological activity (%) Rhamnolipid production (P. aeruginosa; [4]): 81* %
3 | CCCC(O)CC(=O)/C=C/c1ccc(F)c(F)c1 (stereo not drawn) [Compound 11o, (E)-1-(3,4-Difluorophenyl)-5-hydroxyoct-1-en-3-one] | 20** % | 2** % | 2 | 20 | 2** % | 5** % | 60 | 20 | 72 | 53 | significantly inhibited | 101 | 105 | 63 | 50 | –
4 | CCCCC(=O)C#Cc1ccc(F)c(F)c1 [Compound 31, 1-(3,4-Difluorophenyl)hept-1-yn-3-one] | – | – | 4 | 16 | 4** % | 6** % | 29 | 16 | 75 | 55 | significantly inhibited | 100 | 89 | 59 | 49 | effect on cell growth (in words) (Pseudomonas aeruginosa [2]; 100 PM [sic] (100 μM)): slightly inhibited
5 | CCCCCC(=O)/C=C/c1ccc(F)c(F)c1 [Compound 13a, (E)-1-(3,4-Difluorophenyl)oct-1-en-3-one] | – | – | 4 | 51 | 4** % | 3** % | 53 | 51 | 80 | 61 | significantly inhibited | 103 | 103 | 64 | 62 | –
